Results reported in ChEMBL document CHEMBL1201862, “PubChem BioAssay data set” (2004).
The source made the active and inactive calls.

How the values were obtained:
[1] = viability of uninfected HEp-2 cells – cell-based, HTS, cytotoxicity control for RSV inhibitor project, dose response (AID 2410); assay type: functional; details: human respiratory syncytial virus
[2] = test system: INS1; experiment: INS-1E survival protection against cytokine death – cell-based, luminescence, retest, dose response (AID 449756); assay type: functional; details: Rattus norvegicus;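 also: cell death triggered by IL-1 beta plus TNF-alpha plus IFN-gamma mixture; protective hits raise ATP signal compared with cytokine alone wells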
[3] = target: Protein Wnt-3a (Mus musculus, UniProt P27467); experiment: antagonism of Wnt3a pathway luciferase reporter – Wnt-LIGHT cells, luminescence, selectivity assay for Gli-SUFU antagonist project, dose response (AID 651570); assay type: functional; details: read-out: IC50_Mean;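 also: Wnt-LIGHT reporter cells stimulated with conditioned medium from Wnt3a-producing cells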
Sequence of Protein Wnt-3a (P27467 whole entry): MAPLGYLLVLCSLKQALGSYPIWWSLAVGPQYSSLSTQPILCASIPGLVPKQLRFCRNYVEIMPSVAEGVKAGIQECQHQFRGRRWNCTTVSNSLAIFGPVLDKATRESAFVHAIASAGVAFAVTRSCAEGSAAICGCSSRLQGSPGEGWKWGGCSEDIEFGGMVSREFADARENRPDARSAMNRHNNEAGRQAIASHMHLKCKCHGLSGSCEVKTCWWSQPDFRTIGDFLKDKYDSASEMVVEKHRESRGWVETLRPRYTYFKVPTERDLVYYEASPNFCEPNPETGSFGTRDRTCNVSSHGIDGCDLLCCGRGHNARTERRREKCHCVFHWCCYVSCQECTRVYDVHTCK

[4] = test system: Vero; experiment: mammalian cell viability reduction – secondary assay, cytotoxicity control for West Nile virus antiviral project, dose response (AID 1650); assay type: functional; details: Chlorocebus sabaeus
[5] = target: T1, Microphthalmia-associated transcription factor (Homo sapiens, UniProt O75030); experiment: reducers of TRPM1 reporter luminescence, concentration series – cell-based, SK-MEL-5, cherry-picked, set 3, MITF inhibitor project, dose response (AID 493073); assay type: functional;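 also: SK-MEL-5 melanoma cells with luciferase driven by the MITF target TRPM1 promoter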
T1 sequence (O75030 whole entry): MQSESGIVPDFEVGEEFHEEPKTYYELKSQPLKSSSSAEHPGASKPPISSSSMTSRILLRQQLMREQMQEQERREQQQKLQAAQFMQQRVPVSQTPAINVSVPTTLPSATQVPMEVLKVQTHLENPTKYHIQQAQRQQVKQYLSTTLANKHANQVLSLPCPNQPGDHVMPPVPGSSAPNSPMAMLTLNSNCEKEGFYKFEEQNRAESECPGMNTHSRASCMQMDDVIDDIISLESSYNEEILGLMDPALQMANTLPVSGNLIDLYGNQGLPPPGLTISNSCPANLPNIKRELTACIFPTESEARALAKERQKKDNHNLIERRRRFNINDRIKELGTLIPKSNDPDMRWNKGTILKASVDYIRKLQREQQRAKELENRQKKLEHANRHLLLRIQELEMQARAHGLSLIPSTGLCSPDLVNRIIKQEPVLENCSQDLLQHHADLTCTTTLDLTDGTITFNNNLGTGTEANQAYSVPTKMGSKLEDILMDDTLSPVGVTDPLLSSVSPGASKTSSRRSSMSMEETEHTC

[6] = target: Interleukin-8 (Homo sapiens, UniProt P10145); experiment: Dose Response confirmation of uHTS small molecule hits for cystic fibrosis induced NFkb Inhibitors in a PAF-induced IL8 counterscreen.; assay type: functional; details: read-out: IC50_Mean
Sequence of Interleukin-8 (P10145 whole entry): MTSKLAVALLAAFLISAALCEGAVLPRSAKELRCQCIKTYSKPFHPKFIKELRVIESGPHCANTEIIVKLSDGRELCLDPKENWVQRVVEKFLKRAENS

[7] = target: Paired box protein Pax-8 (Homo sapiens, UniProt Q06710); experiment: PAX8 transcriptional activity inhibition in RMG-I – RMG-I cells, luciferase, cherry-pick, dose response (AID 687027); assay type: functional, cell-based;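 also: luciferase reporter driven by Pax8 target thyroperoxidase promoter measured by SteadyGlo luminescence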
Sequence of Paired box protein Pax-8 (Q06710 whole entry): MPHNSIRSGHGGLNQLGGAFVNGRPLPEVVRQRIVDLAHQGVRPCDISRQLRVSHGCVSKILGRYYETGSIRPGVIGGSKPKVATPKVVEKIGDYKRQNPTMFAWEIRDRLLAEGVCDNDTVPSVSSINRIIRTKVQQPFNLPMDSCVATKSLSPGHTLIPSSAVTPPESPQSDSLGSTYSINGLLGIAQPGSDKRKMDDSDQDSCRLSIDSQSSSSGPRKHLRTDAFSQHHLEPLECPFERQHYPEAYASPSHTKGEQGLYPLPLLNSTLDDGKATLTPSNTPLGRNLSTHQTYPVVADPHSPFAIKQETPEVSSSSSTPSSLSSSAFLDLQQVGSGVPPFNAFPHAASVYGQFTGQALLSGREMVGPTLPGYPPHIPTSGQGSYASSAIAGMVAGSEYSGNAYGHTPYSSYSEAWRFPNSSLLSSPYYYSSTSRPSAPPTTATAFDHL

[8] = inhibitors acting on PAX2 in cells – cell-based, plate reader, dry powder samples, selectivity assay for PAX8 inhibitor project, dose response (AID 743048); assay type: functional;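 also: HEK293 cells carrying a WT1 promoter luciferase reporter driven by expressed Pax2; potency is for inhibition of Pax2 driven reporter signal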
[9] = PAX5 cellular inhibition readout – cell-based, plate reader, dry powder samples, selectivity assay for PAX8 inhibitor project, dose response (AID 743047); assay type: functional;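 also: HEK293 cells carrying a Pax5 driven CD19 promoter luciferase reporter; potency of inhibitors that lower reporter luminescence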
[10] = IGROV1 cell killing – plate reader, dry powder samples, PAX8 inhibitor project, dose response (AID 743043); assay type: functional, cell-based; details: IGROV-1
[11] = OVCAR4 cell viability loss – plate reader, dry powder, SA11, cytotoxicity control for PAX8 inhibitor project, dose response (AID 743150); assay type: functional, cell-based; details: OVCAR-4
[12] = COV434 cell viability loss – plate reader, dry powder, SA7, cytotoxicity control for PAX8 inhibitor project, dose response (AID 743145); assay type: functional, cell-based
[13] = OV-90 cell viability loss – plate reader, dry powder, SA8, PAX8 inhibitor project, dose response (AID 743149); assay type: functional, cell-based
[14] = PAX8-dependent cell viability loss – plate reader, dry powder, dose response (AID 743049); assay type: functional, cell-based
[15] = inhibition of ARNT PAS-B/TACC3 complex formation – biochemical, AlphaScreen, cherry-picked samples, confirmation (AID 651703); assay type: functional, Homo sapiens;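 also: His-tagged ARNT PAS-B domain paired with GST-TACC3 E629A dimer coactivator fragment; potency of inhibitors that break up the complex and lower AlphaScreen signal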

## Cc1ccc(Cl)cc1N1CCN(C(=O)CSc2nnc3n2C(C)(C)Cc2ccccc2-3)CC1
[1]
  CC50: < 0.1 µM (active)
[2]
  AC50: 5.01 µM (active)
[3]
  IC50: 4.43 µM (active)

## Cc1ccc(S(=O)(=O)CC(CN2CCCCC2)N2CCCCC2)cc1 (stereo not given)
[4]
  CC50: 8.81 µM (active)
[5]
  AC50: 8.1 µM (active)
[6]
  IC50: 4.55 µM (active)
[7]
  AC50: 4.72 µM (active)
[8]
  AC50: > 100 µM (inactive)
[9]
  AC50: 22.9 µM (active)
[10]
  AC50: 46.5 µM (active)
[11]
  AC50: 80.7 µM (active)
[12]
  AC50: 9.72 µM (active)
[13]
  AC50: 15.7 µM (active)
[14]
  AC50: 17.1 µM (active)

## Cn1ccnc1-c1nc2ccccc2nc1O
[15]
  AC50: 71.9 µM (active)
